Experimental data as given in patent US11623931B2, “Bicyclic compounds for diagnosis and therapy” (AC IMMUNE SA, priority 2016, dated 2023).

What was measured:
[1] = biological target: T1, aSyn aggregates on PD sections (Homo sapiens, UniProt P37840); assay: Assay 1 (fluorescence based assay): direct staining of human Parkinson's disease brain sections; format: binding; design: key: − (No); +/− (very weak); + (weak); ++ (good); +++ (strong); settings: staining intensity; compound 100 μM, frozen amygdala sections, PD Braak stage V-VI
T1 construct: 20 μm frozen sections from amygdala were purchased from an external provider (Tissue Solutions Ltd.); tissue Tissue Solutions Ltd; host or cells: human PD amygdala, frozen sections, Braak stage V-VI
From the text: Assay 1 (Fluorescence Based Assay):
Direct Staining of Compounds of this Invention to Human Parkinson's Disease Brain Sections
20 μm frozen sections from amygdala were purchased from an external provider (Tissue Solutions Ltd.). Donors were diagnosed with PD, Braak stage V-VI (Braak et al., Neurobiol. Aging, 2003, 24, 197-211) and thus with confirmed aSyn pathology. PD donors, Braak stage V-VI with mixed pathology, containing aSyn aggregates as well as Aβ plaques, were also used in this assay. Sections were kept at −80° C. until start of the experiment.
Brain sections were encircled with pap pen liquid blocker to reduce the volume of solution for the different incubations. Sections were fixed for 15 min at 4° C. with 4% paraformaldehyde and washed three times for 5 minutes with PBS (phosphate buffered saline) at room temperature. Test compounds were incubated on the sections at 100 μM in 50% ethanol in water for 30 min at room temperature, followed by three washes of 5 minutes with PBS. Sections were then saturated and permeabilized in blocking buffer (PBS, 10% NGS, 0.25% Triton) for 1 hour at room temperature and then incubated for 2 hours at room temperature with the primary antibodies against aSyn: aSyn-211 (SantaCruz Biotechnology sc-12767) or aSyn-pS129 (Abcam AB51253), and primary antibody against AR, 4G8, (Covance, SIG-39220). All primary antibodies diluted 1/250 in PBS, 5% NGS, 0.25% Triton. After three washes in PBS, the sections were incubated for 30 minutes at room temperature with a secondary anti-mouse antibody labeled with AlexaFluor555 (Invitrogen A21422) or anti-rabbit antibody labeled with AlexaFluor555 (Invitrogen A21428) and further washed three times in PBS. To reduce auto-fluorescence of the tissue, the sections were incubated in a solution of 0.1% Sudan Black (Sigma 199664) in 70% ethanol for 15 min at room temperature, followed by four washes with PBS and mounted under cover slips using ProLong Gold Antifade reagent (Invitrogen P36930).
Sections were analyzed on the Nikon Eclipse Ti microscope to detect staining and imaged using Nikon DS-Fi2 camera and NIS-Element AR4.13.1 software.

[2] = test system: Aβ plaques on AD sections; assay: Assay 1 (fluorescence based assay): direct staining of human Alzheimer's disease brain sections; format: binding; design: key: − (No); +/− (very weak); + (weak); ++ (good); +++ (strong); settings: staining intensity; compound 100 μM, frozen amygdala sections, AD Braak stage V-VI
Protocol: Direct Staining of Compounds of this Invention to Human Alzheimer's Disease Brain Sections 20 μm frozen sections from amygdala were purchased from an external provider (Tissue Solutions Ltd.). Donors were diagnosed with AD, Braak stage V-VI (Braak et al., Neurobiol. Aging, 1995, 16, 271-284) and thus with confirmed Aβ pathology. Sections were kept at −80° C. until start of the experiment. Brain sections were encircled with pap pen liquid blocker to reduce the volume of solution for the different incubations. Sections were fixed for 15 min at 4° C. with 4% paraformaldehyde and washed three times for 5 minutes with PBS at room temperature. Test compounds were incubated on the sections at 100 μM in 50% ethanol in water for 30 min at room temperature, followed by three washes of 5 minutes with PBS. Sections were then saturated and permeabilized in blocking buffer (PBS, 10% NGS, 0.25% Triton) for 1 hour at room temperature and then incubated for 2 hours at room temperature with the primary antibodies against AR, 4G8, (Covance, SIG-39220), diluted 1/250 in PBS, 5% NGS, and 0.25% Triton. After three washes in PBS, the sections were incubated for 30 minutes at room temperature with a secondary anti-mouse antibody labeled with AlexaFluor555 (Invitrogen A21422) and further washed three times in PBS. To reduce auto-fluorescence of the tissue, the sections were incubated in a solution of 0.1% Sudan Black (Sigma 199664) in 70% ethanol for 15 min at room temperature, followed by four washes with PBS and mounted under cover slips using ProLong Gold Antifade reagent (Invitrogen P36930). Sections were analyzed on the Nikon Eclipse Ti microscope to detect staining and imaged using Nikon DS-Fi2 camera and NIS-Element AR4.13.1 software.

SMILES | Staining of aSyn aggregates on PD sections [1] | Staining of Aβ plaques on AD sections [2]
c1cncc(-c2cc3ccc(-c4ccc(N5CCOCC5)cc4)nc3s2)c1 [Example 33] | +++ | +
Fc1ncccc1-c1cc2ccc(-c3ccc(N4CCCC4)nc3)nc2s1 [Example 34] | ++ | +++
c1ncc(-c2cc3ccc(-c4ccc(N5CCCC5)nc4)nc3s2)cn1 [Example 35] | ++ | ++
CN(C)c1ccc(-c2cc3ccc(-c4ccc(F)nc4)nc3s2)cn1 [Example 36] | +++ | +++
CN(C)c1ccc(-c2ccc3cc(-c4ccc(N(C)C)nc4)sc3n2)cn1 [Example 37] | ++ | +
c1cncc(-c2ccc3nc(-c4ccc(N5CCCC5)nc4)sc3n2)c1 [Example 38] | +++ | +++
c1cncc(-c2ccc3sc(-c4ccc(N5CCCC5)nc4)nc3c2)c1 [Example 39] | + | +
Fc1ccncc1-c1ccc2sc(-c3ccc(N4CCCC4)nc3)nc2c1 [Example 40] | +++ | +
Cn1cc(-c2ccc3sc(-c4ccc(N5CCCC5)nc4F)nc3c2)cn1 [Example 42] | + | +
F[C@@H]1CCN(c2ccc(-c3ccc4sc(-c5cccnc5)cc4n3)cn2)C1 [Example 44] | + | −
F[C@@H]1CCN(c2ccc(-c3ccc4cc(-c5cccnc5)sc4n3)cn2)C1 [Example 45] | + | ++
F[C@@H]1CCN(c2ccc(-c3cc4nc(-c5cccnc5)ccc4s3)cn2)C1 [Example 46] | + | +
CNc1ccc(-c2ccc3cc(-c4cccnc4)sc3n2)cn1 [Example 47] | +++ | +++
FC1CCN(c2ccc(-c3ccc4cc(-c5cccnc5)sc4n3)cn2)CC1 [Example 48] | ++ | +
OCCOC1CCN(c2ccc3cc(-c4cccnc4)sc3n2)CC1 [Example 49] | ++ | ++
CN(C)c1ccc(-c2cc3ccc(-c4ccc(N5CCC(F)CC5)nc4)nc3s2)cn1 [Example 50] | ++ | +
Cn1cc(-c2ccc3sc(-c4ccc(N5CC[C@@H](F)C5)nc4)cc3n2)cn1 [Example 51] | ++ | +
Cn1cc(-c2ccc3sc(-c4ccc(N5CC[C@@H](F)C5)nc4)nc3c2)cn1 [Example 52] | + | −
Cn1cc(-c2ccc3sc(-c4ccc(N5CC[C@H](F)C5)nc4)nc3c2)cn1 [Example 53] | + | +
FCCNc1ccc(-c2ccc3cc(-c4cccnc4)sc3n2)cn1 [Example 56] | ++ | ++
CN(CCF)c1ccc(-c2ccc3cc(-c4cccnc4)sc3n2)cn1 [Example 57] | ++ | +
FCCOc1ccc(-c2cc3ccc(Nc4ccc5c(c4)OCCO5)nc3s2)cc1 [Example 58] | + | ++

SMILES | Staining of aSyn aggregates on PD sections [1] | Staining of Aβ plaques on AD sections [2]
FCCOc1cccc(Nc2ccc3cc(-c4cccnc4)sc3n2)c1 [Example 59] | + | +
FCCOc1ccc(Nc2ccc3cc(-c4cccnc4)sc3n2)cc1 [Example 63] | ++ | ++
c1cncc(-c2cc3ccc(Nc4ccc5c(c4)OCCO5)nc3s2)c1 [Example 64] | + | +++
c1cncc(-c2cc3ccc(Nc4ccc(N5CCOCC5)cc4)nc3s2)c1 [Example 65] | + | +++
c1cncc(-c2cc3ccc(Nc4ccc(N5CCOCC5)nc4)nc3s2)c1 [Example 66] | + | ++
FCCOC1CCN(c2ccc3cc(-c4cccnc4)sc3n2)CC1 [Example 67] | + | +
FCCOC1CCN(c2cc3nc(-c4ccc(N5CCCC5)nc4)sc3cn2)CC1 [Example 68] | + | −
CN1CCN(c2ccc3nc(-c4ccc(N5CCCC5)nc4)sc3c2)C(=O)C1 [Example 69] | ++ | +
CN1CCN(c2ccc3nc(-c4ccc(N5CC[C@@H](F)C5)nc4)sc3c2)C(=O)C1 [Example 70] | + | +
CN1CCN(c2ccc3nc(-c4ccc(N5CC[C@H](F)C5)nc4)sc3c2)C(=O)C1 [Example 71] | + | −
O=C1COCCN1c1ccc2nc(-c3ccc(N4CC[C@@H](F)C4)nc3)sc2c1 [Example 72] | +++ | +
O=C1COCCN1c1ccc2nc(-c3ccc(N4CC[C@H](F)C4)nc3)sc2c1 [Example 73] | ++ | +
CNc1ccc(-c2cc3ccc(Nc4ccc(OCCF)cc4)nc3s2)cc1 [Example 74] | + | +++
CNc1ccc(-c2cc3ccc(Nc4ccc5c(c4)OCCO5)nc3s2)cc1 [Example 75] | ++ | +++
CNc1ccc(-c2cc3ccc(Nc4ccc(N5CCOCC5)cc4)nc3s2)cc1 [Example 76] | + | +++
COc1ccc(C#Cc2ccc3cc(-c4cccnc4)sc3n2)cc1 [Example 77] | ++ | ++
O=C1c2sc(-c3ccc(N4CCCC4)nc3)nc2CCN1CCF [Example 78] | + | +
FCCn1cc(-c2cc3nc(-c4ccc(N5CCCC5)nc4)sc3cn2)cn1 [Example 79] | + | +
O=C1c2sc(-c3ccc(N4CCCC4)nc3)nc2CCN1c1cccnc1 [Example 80] | +++ | ++
O=C1COCCN1c1ccc2nc(-c3ccc(N4CCC[C@@H](F)C4)nc3)sc2c1 [Example 126] | ++ | ++
O=C1COCCN1c1ccc2nc(-c3ccc(N4CCC[C@H](F)C4)nc3)sc2c1 [Example 127] | ++ | +
